The results in this text go back to patent US9238812B2, “Agent for suppressing expression of dominant mutant gene” (LSIP, LLC, priority 2010, dated 2016).

The test system of the series is PC3 cells. The series can be described thus: Cell growth and survival activity evaluation (2), relative ATP level (CellTiter-Glo). It counts as cell-based, human. To be noted: culture day 4, compared with No siRNA and siControl. Here is the method:
PC3 cells were cultured in the same way as in “Example 2(1)”.
Electroporation was performed in the same way as in “Example 2(2)”.
The cells were cultured (cell density: approximately 3×10^4 cells/well) in a 96-well culture plate using the culture solution of the paragraph (1). One day and 4 days later, the cells were subjected to each evaluation experiment. si747/49-3D19 was also subjected to similar evaluation experiments, together with a control, 2 days and 6 days after the cell culture.
In order to evaluate the cell growth and survival activity of PC3 cells after the introduction of si747/49-3D19, the relative ATP level of the cells was measured using CellTiter-Glo Assay (Promega Corp.). The experimental procedures followed the protocol included in the product. Luminescence intensity was measured using Fusion Universal Microplate Analyzer (Perkin Elmer Inc.). The negative controls used were the same two controls (No siRNA and siControl) as in the cell growth ability assay.
In general terms: ATP-based viability assays read luminescence as a measure of living cells.

r = 2'-OH (RNA)

“si747/49-3D19: siRNA against EGFR del(L747-E749)-A750P(G) mutant gene; ss SEQ ID NO 55, as SEQ ID NO 56, 3′ UU added (sense GUCGCUAUCAAGGAGCCAA; antisense UUGGCUCCUUGAUAGCGAC; RNA, 3' rUrU, backbone not given here; listed as Homo sapiens)”: the “cell growth and survival activity (cell survival rate), relative ATP level” value is “significantly suppressed the growth rates of the cells or reduced their survival rates”.
